Data published in US20200316092A1, “METHODS OF DIAGNOSIS AND TREATMENT OF LIVER DISEASES USING OBETICHOLIC ACID” (Intercept Pharmaceuticals, Inc., priority 2019, published 2020).
Entries after “also recorded” stand apart in the source; their conditions may differ.

Legend:
Format in all cases: in vivo, human
[1] = Phase 1 study: plasma pharmacokinetics of total OCA; conditions: 10 mg QD or 25 mg QD
Text: (§1) The primary objectives of this study are to evaluate the safety and tolerability of OCA treatment in subjects with NASH with fibrosis and to evaluate single- and multiple-dose pharmacokinetics of OCA, its conjugates, and metabolites in subjects with NASH with fibrosis.
Furthermore, although there were a limited number of subjects having a fibrosis score of F4, plasma exposure was lower in these subjects as compared to the subjects with a fibrosis score of F1 or F2/F3.

[2] = Phase 1 study: liver exposure of OCA and its conjugates
[3] = system: liver function of NASH subjects; experiment: HepQuant-SHUNT test: disease severity index (DSI) score
Text: The HepQuant®-SHUNT test uses simultaneous orally administered d4-cholate and intravenously administered 13C-cholate (i.e. intravenous (24-^13C cholate) and oral (2,2,4,4-^2H cholate) together with mass spectrometry analysis of five serum samples from the subject to accurately measure liver function and generate a disease severity index (DSI) score. HepQuant®-STAT is a simpler test that uses only orally administered d4-cholate and a single serum sample from the subject to estimate liver function (STAT).
Briefly, the HepQuant®-SHUNT test allows for simultaneous measurement of the perfusion/uptake from portal circulation and perfusion/uptake from systemic circulation, as shown in FIGS. 1 and 2. In a HepQuant®-SHUNT test, a subject is orally administered 40 mg of d4-cholate and intravenously administered 20 mg of 13C-cholate. Blood samples are then isolated from the subject at 5, 20, 45, 60 and 90 minutes after cholate administration. For each sample, mass spectrometry is used to determine the Portal Hepatic Filtration Rate (Portal HFR) and Systemic Hepatic Filtration Rate (Systemic HFR). The Portal HFR is defined as the clearance of 4D-cholate (dose AUC^−1 kg body weight^−1, typically mL mini kg^−1) and the Systemic HFR is defined as the clearance of 13C-cholate (dose AUC^−1 kg body weight^−1, typically mL min^−1 kg^−1). The Portal HFR and Systemic HFR can then be used to calculate a Disease Severity Index (DSI) score. The DSI can be used to determine the extent of liver function, and therefore the extent of liver damage/disease in the subject. Thus, the DSI score can be used to diagnose a subject with a disease. For example, a DSI greater than 16.5 can indicate that the subject will likely have biopsy-proven NASH. A DSI score can also be used to determine the percent likelihood of endoscopic finding of varices in subjects with NASH or hepatitis C virus infection, as shown in FIG. 3. DSI scores can also be measured multiple times during a course of treatment described herein (a treatment regimen) to determine the efficacy of the course of treatment. For example, a baseline DSI score can be measured by performing a HepQuant®-SHUNT test prior to the start of the treatment regimen (i.e. prior to the first administration of the treatment regimen) and then a second DSI score can be measured at a time point during the treatment regimen. The first and second DSI scores can compared to determine a DSI difference score. For example, a reduction in DSI score from the baseline measurement can indicate that the course of treatment is beneficial as the subject's liver function is improving. Depending on the DSI difference score, the treatment regimen can be adjusted, continued or discontinued.
In some aspects, a DSI difference score that is greater than or equal to 2 (i.e. a decrease in the DSI scores of 2 or more over the course of treatment) is considered to be clinically meaningful, based on reducing the probability of any varices from approximately 30% to 20% for subjects with a baseline DSI of 20.
As part of the HepQuant®-SHUNT test, labeled cholate was administered intravenously and orally. The HepQuant®-SHUNT tests were used to determine disease severity index (DSI) scores.

[4] = system: subjects with nonalcoholic steatohepatitis with fibrosis; experiment: Phase 1 placebo-controlled study: safety and tolerability (TEAE incidence); conditions: for Total Number of TEAEs: 85 days; for Total Number of TEAEs / Any Serious TEAE / Constipation (TEAE incidence) / Diabetes mellitus (TEAE) / Fatigue (TEAE incidence) / Headache (TEAE incidence) / Hepatobiliary disorders (SOC) (TEAE) / Hypercholesterolemia (TEAE) / LDL Increased, Mild (maximum severity) / LDL Increased, Moderate (maximum severity) / LDL Increased, Severe (maximum severity) / Low density lipoprotein increased (TEAE incidence) / Nausea (TEAE incidence) / Pneumonia (TEAE incidence) / Pruritis (TEAE incidence) / Pruritus, Mild (maximum severity) / Pruritus, Moderate (maximum severity) / Pruritus, Severe (maximum severity) / Subjects with at least one TEAE: n = 20
Text: Example 1: A Phase 1, Double-Blind, Randomized, Placebo-Controlled Study to Evaluate Safety, Pharmacokinetics, and Pharmacodynamics of Obeticholic Acid in Subjects with Nonalcoholic Steatohepatitis with Fibrosis
as §1
The study comprised three treatment groups-10 mg QD, 25 mg QD and Placebo QD.

[5] = system: subjects with nonalcoholic steatohepatitis with fibrosis; experiment: Phase 1 study: liver chemistries (ALT, AST, GGT, bilirubin, ALP); conditions: Day 85 compared to baseline
Text: (§2) The secondary objectives of this study are to evaluate the pharmacodynamics of OCA on FXR activation and to evaluate liver chemistries and the pharmacodynamics of OCA on biomarkers of NASH, including inflammation, apoptosis, and oxidation stress.

FXR activation = experiment: Phase 1 study: pharmacodynamic markers of FXR activation (C4, bile acids, FGF-19); conditions: Day 85 compared to baseline
Text: as §2
Furthermore, plasma bile acids were suppressed by administration of OCA, but no dose response was observed.

CC[C@H]1[C@@H](O)[C@@H]2[C@H](CC[C@]3(C)[C@@H]([C@H](C)CCC(=O)O)CC[C@@H]23)[C@@]2(C)CC[C@@H](O)C[C@@H]12 [OCA, 3α,7α-dihydroxy-6α-ethyl-5β-cholan-24-oic acid]
plasma exposure of OCA, NASH subjects vs healthy subjects ([1]; day 1 and day 85): modestly higher in NASH subjects | plasma exposure in F4 subjects compared to F1 or F2/F3 ([1]; limited number of F4 subjects): lower | liver exposure of OCA across fibrosis scores ([2]; 10 mg QD, F1 or F2/F3): generally similar across subjects with different fibrosis scores | liver exposure of OCA across fibrosis scores ([2]; 25 mg QD, F1, F2/F3 or F4): generally similar across subjects with different fibrosis scores | liver exposure of OCA across fibrosis scores after normalization by dose ([2]; F1, F2/F3 or F4): generally similar across subjects with different fibrosis scores | reduction in DSI ([3]; 10 mg QD or 25 mg QD, Day 85, greater response at 25 mg QD): dose-dependent and clinically meaningful reduction; also recorded: dose-dependent response | subjects treated with OCA among the 18 subjects with clinically relevant ΔDSI of at least −2 ([3]; F1, F2/F3 or F4, 10 mg QD or 25 mg QD, Day 85): 17 subjects | Responders (≥2 point decrease in DSI), % ([3]; F1, OCA 10 mg QD, Day 85, n = 3): (67) % | Responders (≥2 point decrease in DSI), % ([3]; F1, OCA 25 mg QD, Day 85, n = 5): (20) % | change in DSI score (Day 85−Baseline) vs placebo ([3]; F2/F3 NASH subjects, greatest effect at 25 mg QD): greater improvement in DSI score | Responders (≥2 point decrease in DSI), % ([3]; F4, OCA 10 mg QD, Day 85, n = 2): (50) % | Responders (≥2 point decrease in DSI), % ([3]; F4, OCA 25 mg QD, Day 85, n = 1): (100) % | TEAEs leading to study discontinuation ([4]; 10 mg QD and 25 mg QD for 12 weeks): no TEAEs leading to study discontinuation | safety and tolerability ([4]; 10 mg QD and 25 mg QD for 12 weeks, NASH subjects with fibrosis): generally safe and well tolerated | Total Number of TEAEs ([4]; OCA 10 mg QD): 29 | Any Serious TEAE ([4]; OCA 10 mg QD): 0 n (%) | Constipation (TEAE incidence) ([4]; OCA 10 mg QD): 2 (10%) n (%) | Diabetes mellitus (TEAE) ([4]; OCA 10 mg QD): 1 (5%) n (%) | Fatigue (TEAE incidence) ([4]; OCA 10 mg QD): 2 (10%) n (%) | Headache (TEAE incidence) ([4]; OCA 10 mg QD): 0 n (%) | Hepatobiliary disorders (SOC) (TEAE) ([4]; OCA 10 mg QD): 0 n (%) | Hypercholesterolemia (TEAE) ([4]; OCA 10 mg QD): 0 n (%) | LDL Increased, Mild (maximum severity) ([4]; OCA 10 mg QD): 2 (10%) n (%) | LDL Increased, Moderate (maximum severity) ([4]; OCA 10 mg QD): 0 n (%) | LDL Increased, Severe (maximum severity) ([4]; OCA 10 mg QD): 0 n (%) | Low density lipoprotein increased (TEAE incidence) ([4]; OCA 10 mg QD): 2 (10%) n (%) | Nausea (TEAE incidence) ([4]; OCA 10 mg QD): 0 n (%) | Pneumonia (TEAE incidence) ([4]; OCA 10 mg QD): 0 n (%) | Pruritis (TEAE incidence) ([4]; OCA 10 mg QD): 3 (15%) n (%) | Pruritus, Mild (maximum severity) ([4]; OCA 10 mg QD): 3 (15%) n (%) | Pruritus, Moderate (maximum severity) ([4]; OCA 10 mg QD): 0 n (%) | Pruritus, Severe (maximum severity) ([4]; OCA 10 mg QD): 0 n (%) | Subjects with at least one TEAE ([4]; OCA 10 mg QD): 12 (60%) n (%) | Total Number of TEAEs ([4]; OCA 25 mg QD): 36 | Any Serious TEAE ([4]; OCA 25 mg QD): 0 n (%) | Constipation (TEAE incidence) ([4]; OCA 25 mg QD): 2 (10%) n (%) | Diabetes mellitus (TEAE) ([4]; OCA 25 mg QD): 0 n (%) | Fatigue (TEAE incidence) ([4]; OCA 25 mg QD): 3 (15%) n (%) | Headache (TEAE incidence) ([4]; OCA 25 mg QD): 0 n (%) | Hepatobiliary disorders (SOC) (TEAE) ([4]; OCA 25 mg QD): 0 n (%) | Hypercholesterolemia (TEAE) ([4]; OCA 25 mg QD): 1 (5%) n (%) | LDL Increased, Mild (maximum severity) ([4]; OCA 25 mg QD): 1 (5%) n (%) | LDL Increased, Moderate (maximum severity) ([4]; OCA 25 mg QD): 1 (5%) n (%) | LDL Increased, Severe (maximum severity) ([4]; OCA 25 mg QD): 0 n (%) | Low density lipoprotein increased (TEAE incidence) ([4]; OCA 25 mg QD): 2 (10%) n (%) | Nausea (TEAE incidence) ([4]; OCA 25 mg QD): 0 n (%) | Pneumonia (TEAE incidence) ([4]; OCA 25 mg QD): 2 (10%) n (%) | Pruritis (TEAE incidence) ([4]; OCA 25 mg QD): 5 (25%) n (%) | Pruritus, Mild (maximum severity) ([4]; OCA 25 mg QD): 2 (10%) n (%) | Pruritus, Moderate (maximum severity) ([4]; OCA 25 mg QD): 3 (15%) n (%) | Pruritus, Severe (maximum severity) ([4]; OCA 25 mg QD): 0 n (%) | Subjects with at least one TEAE ([4]; OCA 25 mg QD): 15 (75%) n (%) | LDL cholesterol ([4]; OCA treatment groups (10 mg QD, 25 mg QD)): increase in LDL cholesterol | ALP levels, change from baseline [5]: dose dependent increase | biochemistry markers of hepatic cytotoxicity and dysfunction (ALT, AST, GGT, total bilirubin, direct bilirubin) ([5]; no dose-dependent response): suppressed | FGF-19 levels, percent change from baseline (FXR activation): increased with OCA dose | C4 levels, percent change from baseline (FXR activation; no dose response): suppressed | plasma bile acids, percent change from baseline (FXR activation; no dose response): suppressed
